According to ChEMBL document CHEMBL1201862, “PubChem BioAssay data set” (2004):
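Step 1: Grow cells in 96-well plates. Step 2: Expose to compound for 48 hours at 5 concentrations. Step 3: Interpolate endpoints linearly; if unreached, use highest concentration. The concentration for 50% growth inhibition is given as GI50.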 Active and inactive are the calls of the source. Cut-off read from the data, not from the text of the source: active = GI50 up to about 1.1 µM and inactive = higher.

What was measured:
Assay in all cases: NCI anticancer screen, dose series, 48 h
SN12C = test system: SN12C
RPMI-8226 = test system: RPMI-8226
HL-60 = test system: HL-60
OVCAR-3 = test system: OVCAR-3
HCC 2998 = test system: HCC 2998
OVCAR-4 = test system: OVCAR-4
HOP-62 = test system: HOP-62
HCT-116 = test system: HCT-116
M14 = test system: M14
RXF 393 = test system: RXF 393
NCI-H23 = test system: NCI-H23
KM12 = test system: KM12
OVCAR-5 = test system: OVCAR-5
T47D = test system: T47D
COLO 205 = test system: COLO 205
SK-MEL-2 = test system: SK-MEL-2
K562 = test system: K562
SW-620 = test system: SW-620
TK-10 = test system: TK-10
PC-3 = test system: PC-3

SMILES	GI50 (SN12C)	GI50 (RPMI-8226)	GI50 (HL-60)	GI50 (OVCAR-3)	GI50 (HCC 2998)	GI50 (OVCAR-4)	GI50 (HOP-62)	GI50 (HCT-116)	GI50 (M14)	GI50 (RXF 393)	GI50 (NCI-H23)	GI50 (KM12)	GI50 (OVCAR-5)	GI50 (T47D)	GI50 (COLO 205)	GI50 (SK-MEL-2)	GI50 (K562)	GI50 (SW-620)	GI50 (TK-10)	GI50 (PC-3)
O=C(Nc1cccc(C(F)(F)F)c1)C(=O)C(C(=O)c1ccc2ccccc2c1)C1OC(=O)c2ccccc21 (centres undefined)	13.2 µM (inactive)	3.68 µM (inactive)	7.69 µM (inactive)	16 µM (inactive)	10.8 µM (inactive)	9.12 µM (inactive)	11.5 µM (inactive)	6.82 µM (inactive)	13 µM (inactive)	4.16 µM (inactive)	6.46 µM (inactive)	12.2 µM (inactive)	14.3 µM (inactive)	8.99 µM (inactive)	10.9 µM (inactive)	8.57 µM (inactive)	5.38 µM (inactive)	6.25 µM (inactive)	22.6 µM (inactive)	
COc1ccc(NC(=S)NC(=O)c2ccc3c(c2)Sc2ccccc2O3)c([N+](=O)[O-])c1	35.1 µM (inactive)		32.7 µM (inactive)	22.6 µM (inactive)		14.9 µM (inactive)	33 µM (inactive)	28.9 µM (inactive)	39.1 µM (inactive)	19.3 µM (inactive)	83.2 µM (inactive)	60.1 µM (inactive)	> 100 µM (inactive)	22.4 µM (inactive)	> 100 µM (inactive)	28.6 µM (inactive)	64.1 µM (inactive)	0.387 µM (active)	17.9 µM (inactive)	43.1 µM (inactive)
CC(C)(CN1CCCCC1)C(=O)CC(SCCS(=O)(=O)O)c1ccccc1 (centres undefined)	20 µM (inactive)	23.2 µM (inactive)		5.87 µM (inactive)	23.3 µM (inactive)	17.6 µM (inactive)	30.8 µM (inactive)	5.9 µM (inactive)	9.38 µM (inactive)	10.8 µM (inactive)	> 10 µM (inactive)	18.5 µM (inactive)	11.6 µM (inactive)		13.6 µM (inactive)	37.9 µM (inactive)	2.7 µM (inactive)	11.1 µM (inactive)	16.9 µM (inactive)	22.9 µM (inactive)
COc1cc(/C=C/C(=O)c2ccc(NS(=O)(=O)c3cc([N+](=O)[O-])ccc3C)cc2)cc(OC)c1OC	1.87 µM (inactive)	1.96 µM (inactive)	3.37 µM (inactive)	3.15 µM (inactive)		3.19 µM (inactive)	2.99 µM (inactive)	2.38 µM (inactive)	2.99 µM (inactive)	2.81 µM (inactive)	3.05 µM (inactive)	2.62 µM (inactive)	4.37 µM (inactive)	12.1 µM (inactive)	4.26 µM (inactive)	2.67 µM (inactive)	2.88 µM (inactive)	4.49 µM (inactive)	3.96 µM (inactive)	5.9 µM (inactive)
COC(=O)/C=C/c1cc(O)c2c(c1)[C@H](C(=O)OC)[C@@H](c1ccc(O)c(O)c1)O2	0.18 µM (active)	0.0618 µM (active)		0.0339 µM (active)	19.2 µM (inactive)	2.76 µM (inactive)	0.333 µM (active)	0.0499 µM (active)	0.0386 µM (active)		0.342 µM (active)	0.283 µM (active)	35.7 µM (inactive)		11.5 µM (inactive)	0.0783 µM (active)	0.0306 µM (active)	0.0428 µM (active)	24.7 µM (inactive)	1.57 µM (inactive)
COC1(OC)CCCc2c1no[n+]2[O-]	> 100 µM (inactive)	> 100 µM (inactive)	> 100 µM (inactive)	> 100 µM (inactive)	> 100 µM (inactive)	> 100 µM (inactive)	> 100 µM (inactive)	> 100 µM (inactive)	> 100 µM (inactive)	> 100 µM (inactive)	> 100 µM (inactive)	> 100 µM (inactive)	> 100 µM (inactive)		> 100 µM (inactive)	> 100 µM (inactive)	> 100 µM (inactive)	> 100 µM (inactive)	> 100 µM (inactive)	> 100 µM (inactive)
CCOC(=O)CCC(C(=O)OCC)n1nnc2cc(Nc3c(C)[n+]([O-])c4cc(F)c(OCC)cc4[n+]3[O-])ccc21 (centres undefined)	> 100 µM (inactive)	> 100 µM (inactive)	> 100 µM (inactive)	> 100 µM (inactive)		> 100 µM (inactive)	22.2 µM (inactive)	> 100 µM (inactive)	> 100 µM (inactive)	14 µM (inactive)	67.8 µM (inactive)	> 100 µM (inactive)	> 100 µM (inactive)	> 100 µM (inactive)	> 100 µM (inactive)	83.4 µM (inactive)	> 100 µM (inactive)	> 100 µM (inactive)	48.3 µM (inactive)	> 100 µM (inactive)
